Measured values as given in patent US9133180B2, “Aurora and FLT3 kinases modulators” (SAREUM LIMITED, priority 2012, dated 2015).

How the values were obtained:
Aurora B kinase = Aurora B kinase (Homo sapiens (Human), UniProt Q96GD4); experiment: Aurora B kinase 33P-ATP filter assay (Reaction Biology Corp.); format: biochemical
Procedure: (§1) The ability of the compounds of the invention to inhibit FLT3 kinase and Aurora A and Aurora B kinases was determined using the assays described below.
(§2) Kinase assays were performed at Reaction Biology Corp., Malvern, Pa., USA, using the following general procedure:
(§3) 1) Prepare indicated substrate in freshly prepared Base Reaction Buffer (20 mM Hepes pH 7.5, 10 mM MgCl2, 1 mM EGTA, 0.02% Brij35, 0.02 mg/ml BSA, 0.1 mM Na3VO4, 2 mM DTT, 1% DMSO).
(§4) 2) Deliver cofactors (1.5 mM CaCl2, 16 ug/mL Calmodulin, 2 mM MnCl2) to the substrate solution above.
(§5) 3) Deliver indicated kinase into the substrate solution and gently mix
(§6) 4) Deliver varying concentrations of test compound in DMSO into the kinase reaction mixture.
(§7) 5) Deliver ^33P-ATP (specific activity 0.01 µCi/µL final) into the reaction mixture to initiate the reaction.
(§8) 6) Incubate kinase reaction for 120 min at room temperature.
(§9) 7) Reactions are spotted onto P81 ion exchange filter paper (Whatman #3698-915)
(§10) 8) Unbound phosphate is removed by washing filters extensively in 0.75% phosphoric acid.
(§11) 9) ^33P signal was determined using Typhoon phosphorimagers (GE Healthcare).
(§12) Substrates: Kemptide=[H-LRRASLG] Abltide=[[…]]

HCT-116 [1] = experiment: Anti-proliferative activity, Alamar Blue assay; format: cell-based; details: Homo sapiens, 96 h exposure, read-out: HCT116 96 Hrs IC50
Procedure: (§13) The anti-proliferative activities of compounds of the invention are determined by measuring the ability of the compounds to inhibit the growth of the colorectal cancer derived cell-line HCT-116. Inhibition of cell growth is measured using the Alamar Blue assay (Nociari et al., Journal of Immunological Methods (1998) 213, 157-167). The method is based on the ability of viable cells to reduce resazurin to its fluorescent product resorufin. For each proliferation assay cells are plated onto 96 well plates and allowed to recover for 16 hours prior to the addition of inhibitor compounds for a further 96 hours. At the end of the incubation period 10% (v/v) Alamar Blue is added and incubated for a further 6 hours prior to determination of fluorescent product at Excitation 535 nm and Emission 590 nm. All cell lines are obtained from ECACC (European Collection of cell Cultures).
(§14) The activities of the compounds of the invention against the human colorectal cancer cell line HCT-116 are shown the in the table below. The column headed HCT-116 96 Hrs refers to the concentration of compound required to reduce the proliferation of HCT-116 cells by 50% following a 96 h period of exposure. The column headed [Polyploidy] refers to the lowest concentration of compound required to produce a distinct polyploid phenotype, believed to be due to Aurora B inhibition.

[2] = Caco-2 permeability assay; format: in vitro ADME; details: human; for Papp A→B: A2B, read-out: Caco2 A2B Papp; for Papp B→A: B2A, read-out: Caco2 B2A Papp; for efflux ratio: B2A:A2B, read-out: Caco2 Efflux ratio
Procedure: The ability of a compound to be taken up and retained by a cell can be measured by carrying out permeability studies using Caco-2 cells.
Compounds of the present invention were therefore tested in a standard Caco-2 assay and the rate of flow of the compounds into and out of the cells was determined.
In the table, the column headed “Caco-2 A2B” indicates the rate at which compound flows into the cells and the column Caco-2 B2A indicates the rate at which compound flows out of the cells. The “Efflux Ratio” is the ratio of Caco-2 B2A:Caco-2 A2B.

FLT3 kinase = FLT3 kinase (Homo sapiens (Human), UniProt P36888); experiment: FLT3 kinase 33P-ATP filter assay (Reaction Biology Corp.); format: biochemical
Procedure: as §1, §2, §3, §4, §5, §6, §7, §8, §9, §10, §11, §12

Aurora A kinase = Aurora A kinase (Homo sapiens (Human), UniProt O14965); experiment: Aurora A kinase 33P-ATP filter assay (Reaction Biology Corp.); format: biochemical
Procedure: as §1, §2, §3, §4, §5, §6, §7, §8, §9, §10, §11, §12

HCT-116 [3] = experiment: Polyploid phenotype in HCT-116 cells; format: cell-based, human
Procedure: as §13, §14

[4] = tested on: SW620, HCT-116, Colo205, A549, Calu-6 or HL-60 tumour xenografts; details: HL-60 xenograft; cited from earlier work
[5] = tested on: treatment-refractory primary Acute Myelogenous Leukemia (AML) cells; details: cells from patients; cited from earlier work
MV4-11 xenograft tumors = experiment: MV4-11 xenograft study in nude mice; format: in vivo, Balb/c nude mouse; details: 100 mg/kg IP once daily, 4 cycles
Excerpt: The in vivo antitumour activity of compounds of the invention was investigated by examining the effect of the compounds of Examples 2 and 7 on tumour growth in a nude mouse xenograft model of the MV4-11 cancer cell line.
MV4-11 cell line (ATCC, USA); RPMI 1640 medium (Invitrogen, USA); FBS (Invitrogen, Australia); Balb/c nude mouse (Slac Laboratory Animal Co., Ltd., Shanghai, China): female, 18-22 g; HP-6-CD (Sigma, USA).
A total of 52 female nude mice were used. The mice were allowed 3 days of acclimatization period before starting the experiment. Mice were implanted subcutaneously (s.c.) with 200 μl of 1×10^7MV4-11 tumour cells in 50% Matrigel in the right flank at the beginning of the study. When tumours reached an average volume of 100-150 mm^3, 32 mice out of the 52 were selected based on tumour volume, and randomly assigned to 4 groups prior to dosing. Each treatment group consisted of 8 tumour-bearing animals (n=8/group).
A comparison group of mice were treated with cytarabine once daily for 5 days on, 2 days off, for 4 cycles.
Mice were weighed at each dosing and the tumour sizes recorded twice each week. Mice were observed closely for any overt signs of adverse, treatment-related side effects and these were recorded if and when they were observed.
The tumour size was measured twice weekly in two dimensions using calipers, and the volume was expressed in mm^3 using the formula: V=0.5 a×b^2 where a and b were the long and short diameters of the tumour, respectively.
Mice were euthanized by CO2 exposure after 4-cycle dose. The tumour volume, weight of dissected tumours, and the mouse body weight were measured and recorded. The tumour inhibitory rate (IR) was calculated by the formula IR=(WV−WT)/WV×100%.
The differences in tumour size between the groups were analyzed for significance using the unpaired two-tailed Student's t-test. P<0.05 was considered to be statistically significant.

Sequence of Aurora A kinase (O14965 whole entry): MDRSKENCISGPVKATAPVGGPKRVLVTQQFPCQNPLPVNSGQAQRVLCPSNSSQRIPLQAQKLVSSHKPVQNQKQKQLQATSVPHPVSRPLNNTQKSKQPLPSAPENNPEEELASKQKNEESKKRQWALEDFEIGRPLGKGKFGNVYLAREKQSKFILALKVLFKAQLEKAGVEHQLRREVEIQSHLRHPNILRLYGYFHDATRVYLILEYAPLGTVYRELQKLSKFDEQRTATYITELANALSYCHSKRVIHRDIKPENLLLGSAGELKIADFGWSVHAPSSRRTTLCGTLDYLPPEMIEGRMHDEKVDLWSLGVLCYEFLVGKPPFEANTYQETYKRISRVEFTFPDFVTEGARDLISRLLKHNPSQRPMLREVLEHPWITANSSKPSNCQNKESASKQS
Sequence of Aurora B kinase (Q96GD4 whole entry): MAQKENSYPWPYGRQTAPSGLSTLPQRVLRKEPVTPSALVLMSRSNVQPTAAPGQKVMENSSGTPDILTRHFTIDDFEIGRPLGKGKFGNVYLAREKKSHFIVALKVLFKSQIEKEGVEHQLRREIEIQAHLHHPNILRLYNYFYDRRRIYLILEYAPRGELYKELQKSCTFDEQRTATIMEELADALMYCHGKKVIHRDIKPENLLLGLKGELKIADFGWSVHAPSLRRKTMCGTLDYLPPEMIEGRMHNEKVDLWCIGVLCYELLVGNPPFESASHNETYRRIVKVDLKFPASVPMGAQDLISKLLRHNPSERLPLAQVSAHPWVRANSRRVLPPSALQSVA
Sequence of FLT3 kinase (P36888 27-993): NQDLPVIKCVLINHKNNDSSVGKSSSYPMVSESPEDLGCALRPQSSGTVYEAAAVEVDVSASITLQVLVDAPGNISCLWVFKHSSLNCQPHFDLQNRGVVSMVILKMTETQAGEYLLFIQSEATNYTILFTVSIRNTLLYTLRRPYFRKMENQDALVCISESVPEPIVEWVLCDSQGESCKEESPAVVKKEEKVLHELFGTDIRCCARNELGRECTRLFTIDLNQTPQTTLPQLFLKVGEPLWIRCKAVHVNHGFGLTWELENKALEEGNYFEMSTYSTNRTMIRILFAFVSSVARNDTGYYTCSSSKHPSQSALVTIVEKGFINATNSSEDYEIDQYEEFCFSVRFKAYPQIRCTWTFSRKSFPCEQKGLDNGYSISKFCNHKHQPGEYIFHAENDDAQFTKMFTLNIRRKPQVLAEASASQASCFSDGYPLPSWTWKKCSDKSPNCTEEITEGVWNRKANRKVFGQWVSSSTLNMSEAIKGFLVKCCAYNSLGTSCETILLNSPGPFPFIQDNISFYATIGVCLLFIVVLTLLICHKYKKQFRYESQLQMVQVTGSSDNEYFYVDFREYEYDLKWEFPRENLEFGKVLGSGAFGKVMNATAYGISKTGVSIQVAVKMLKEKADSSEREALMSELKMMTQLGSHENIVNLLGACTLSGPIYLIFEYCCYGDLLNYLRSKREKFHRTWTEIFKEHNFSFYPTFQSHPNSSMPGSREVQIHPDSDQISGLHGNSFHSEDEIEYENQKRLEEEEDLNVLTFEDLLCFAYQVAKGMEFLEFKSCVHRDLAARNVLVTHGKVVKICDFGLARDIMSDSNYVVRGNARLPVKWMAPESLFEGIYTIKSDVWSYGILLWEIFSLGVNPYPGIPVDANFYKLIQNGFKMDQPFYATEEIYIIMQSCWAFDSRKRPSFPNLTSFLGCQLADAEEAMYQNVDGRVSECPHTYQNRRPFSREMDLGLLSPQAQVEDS

| Structure (SMILES) | IC50 (Aurora B kinase) [nM] | IC50 (HCT-116 [1]) [nM] | Papp A→B [2] [×10⁻⁶ cm/s] | Papp B→A [2] [×10⁻⁶ cm/s] | efflux ratio [2] | IC50 (FLT3 kinase) [nM] | IC50 (Aurora A kinase) [nM] | [Polyploidy] lowest concentration producing a distinct polyploid phenotype (HCT-116 [3]) [µM] | complete tumour regression (animals) [4] | killing of primary AML cells [5] | effect on tumour growth (tumour volume) (MV4-11 xenograft tumors) | tumour inhibitory rate (IR) (MV4-11 xenograft tumors; 5 days on, 2 days off) [%] |
| --- | --- | --- | --- | --- | --- | --- | --- | --- | --- | --- | --- | --- |
| CC1(C)CN(c2ccc(-c3oc(-c4c(F)ccc5[nH]ccc45)nc3C(N)=O)cc2)CCN1 [Example 1, 2-(5-Fluoro-1H-Indol-4-yl)-5-[4-(3,3-dimethyl-piperazin-1-yl)-phenyl]-oxazole-4-carboxylic acid amide] | 24.3 | 240 | 0.707 | 22.8 | 32.2 | 1.92 | 14.6 | 0.3 | – | – | – | – |
| NC(=O)c1nc(-c2cccc3[nH]ccc23)oc1-c1ccc(N2CCNCC2)cc1 [Example M-12, 2-(1H-Indol-4-yl)-5-(4-piperazin-1-yl-phenyl)-oxazole-4-carboxylic acid amide, reference compound] | 13 | 680 | 1.13 | 58.3 | 51.7 | 1.6 | 75 | 1.0 | – | – | – | – |
| CCc1ccc2[nH]ccc2c1-c1nc(C(N)=O)c(-c2ccc(N3CCNC(C)(C)C3)cc2)o1 [Example 9, 2-(5-Ethyl-1H-Indol-4-yl)-5-[4-(3,3-dimethyl-piperazin-1-yl)-phenyl]-oxazole-4-carboxylic acid amide] | – | – | 0.519 | 3.59 | 6.91 | – | – | – | – | – | – | – |
| CCN(CCCOc1ccc2c(Nc3cc(CC(=O)Nc4cccc(F)c4)n[nH]3)ncnc2c1)CCOP(=O)(O)O [AZD1152] | – | – | – | – | – | – | – | – | 8 of 11 | – | – | – |
| Cc1cc(C)c2[nH]ccc2c1-c1nc(C(N)=O)c(-c2ccc(N3CCNC(C)(C)C3)cc2)o1 [Example 6, 2-(5,7-Dimethyl-1H-Indol-4-yl)-5-[4-(3,3-dimethyl-piperazin-1-yl)-phenyl]-oxazole-4-carboxylic acid amide] | 19.6 | 160 | 0.514 | 2.08 | 4.04 | 1.37 | 88.4 | 0.1 | – | – | – | – |
| Cc1cc(Nc2cc(N3CCN(C)CC3)nc(Sc3ccc(NC(=O)C4CC4)cc3)n2)n[nH]1 [VX-680] | – | – | – | – | – | – | – | – | – | potently killed | – | – |
| Nc1ccn([C@@H]2O[C@H](CO)[C@@H](O)[C@@H]2O)c(=O)n1 [cytarabine, reference compound] | – | – | – | – | – | – | – | – | – | – | slowed down but did not completely block the tumour growth | 66.72 |
| CC1(C)CN(c2ccc(-c3oc(-c4cccc5[nH]ccc45)nc3C(N)=O)cc2)CCN1 [Example 11, 2-(1H-Indol-4-yl)-5-[4-(3,3-dimethyl-piperazin-1-yl)-phenyl]-oxazole-4-carboxylic acid amide] | 15.2 | 170 | 2.47 | 12.6 | – | – | 46.2 | 0.1 | – | – | – | – |
| Cc1c[nH]c2cccc(-c3nc(C(N)=O)c(-c4ccc(N5CCNC(C)(C)C5)cc4)o3)c12 [Example 8, 2-(3-Methyl-1H-Indol-4-yl)-5-[4-(3,3-dimethyl-piperazin-1-yl)-phenyl]-oxazole-4-carboxylic acid amide] | 14.2 | – | 2.07 | 9.19 | 4.45 | 0.55 | 271 | – | – | – | – | – |

The next lines start with results.

| IC50 (Aurora B kinase) [nM] | IC50 (HCT-116 [1]) [nM] | Papp A→B [2] [×10⁻⁶ cm/s] | Papp B→A [2] [×10⁻⁶ cm/s] | efflux ratio [2] | IC50 (FLT3 kinase) [nM] | IC50 (Aurora A kinase) [nM] | Structure (SMILES) | [Polyploidy] lowest concentration producing a distinct polyploid phenotype (HCT-116 [3]) [µM] | complete tumour regression (animals) [4] | killing of primary AML cells [5] | effect on tumour growth (tumour volume) (MV4-11 xenograft tumors) | tumour inhibitory rate (IR) (MV4-11 xenograft tumors; 5 days on, 2 days off) [%] |
| --- | --- | --- | --- | --- | --- | --- | --- | --- | --- | --- | --- | --- |
| 14 | – | 0.036 | 1.21 | 33.5 | 2.8 | 16 | CC1(C)CN(c2ccc(-c3oc(-c4ccc(C(F)(F)F)c5[nH]ccc45)nc3C(N)=O)cc2)CCN1 [Example 12, 2-(7-Trifluoromethyl-1H-Indol-4-yl)-5-[4-(3,3-dimethyl-piperazin-1-yl)-phenyl]-oxazole-4-carboxylic acid amide] | – | – | – | – | – |
| 9.36 | 120 | 1.17 | 7.76 | 6.62 | 0.821 | 19.4 | CC1(C)CN(c2ccc(-c3oc(-c4ccc(F)c5[nH]ccc45)nc3C(N)=O)cc2)CCN1 [Example 3, 2-(7-Fluoro-1H-Indol-4-yl)-5-[4-(3,3-dimethyl-piperazin-1-yl)-phenyl]-oxazole-4-carboxylic acid amide] | 0.1 | – | – | – | – |
| – | 220 | 0.37 | 2.35 | – | – | – | CCc1ccc(-c2nc(C(N)=O)c(-c3ccc(N4CCNC(C)(C)C4)cc3)o2)c2cc[nH]c12 [Example 10, 2-(7-Ethyl-1H-Indol-4-yl)-5-[4-(3,3-dimethyl-piperazin-1-yl)-phenyl]-oxazole-4-carboxylic acid amide] | 0.3 | – | – | – | – |
| 8.78 | 87 | 1.36 | 11 | – | 0.89 | 20.5 | COc1ccc(-c2nc(C(N)=O)c(-c3ccc(N4CCNC(C)(C)C4)cc3)o2)c2cc[nH]c12 [Example 5, 2-(7-Methoxy-1H-Indol-4-yl)-5-[4-(3,3-dimethyl-piperazin-1-yl)-phenyl]-oxazole-4-carboxylic acid amide] | 0.1 | – | – | – | – |
| 13.9 | 260 | 0.64 | 2.76 | 4.32 | 0.97 | 34 | CC1(C)CN(c2ccc(-c3oc(-c4ccc(Cl)c5[nH]ccc45)nc3C(N)=O)cc2)CCN1 [Example 4, 2-(7-Chloro-1H-Indol-4-yl)-5-[4-(3,3-dimethyl-piperazin-1-yl)-phenyl]-oxazole-4-carboxylic acid amide] | 0.3 | – | – | – | – |
